In the supplement of paper PMC10307832:

Key:
Assay in all cases: relative viability (nuclei count vs DMSO), 5 days (fraction); higher = more cells survive
Cediranib + Foretinib = compound: COc1cc2c(Oc3ccc4[nH]c(C)cc4c3F)ncnc2cc1OCCCN1CCCC1 [Cediranib] + COc1cc2c(Oc3ccc(NC(=O)C4(C(=O)Nc5ccc(F)cc5)CC4)cc3F)ccnc2cc1OCCCN1CCOCC1 [Foretinib] (partner 0.25 µM)
Method in brief: (§1)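 One day after seeding in 1536-well plates, lung cancer cell lines were dosed by pin tool. Dosing was either single-drug or a fixed anchor-drug dose plus five library-drug doses (not always all listed) in √10 steps. After 5 days, nuclei were stained in one fix-and-stain step and counted on 4× images, and relative viability is the nuclei count of treated wells over that of vehicle wells, given as the median of duplicate plates.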

[1] = compound: O=C(C[C@H]1NCCC[C@@H]1O)Cn1cnc2cc(Br)c(Cl)cc2c1=O (racemic) [Halofuginone] + CC(=O)Nc1cccc(-n2c(=O)n(C3CC3)c(=O)c3c(Nc4ccc(I)cc4F)n(C)c(=O)c(C)c32)c1 [Trametinib] (partner 0.02 µM)
Method in brief: as §1

[2] = compound: O=C(C[C@H]1NCCC[C@@H]1O)Cn1cnc2cc(Br)c(Cl)cc2c1=O (racemic) [Halofuginone] + CC(=O)c1c(C)c2cnc(Nc3ccc(N4CCNCC4)cn3)nc2n(C2CCCC2)c1=O [Palbociclib] (partner 0.5 µM)
Method in brief: as §1

[3] = compound: O=C(C[C@H]1NCCC[C@@H]1O)Cn1cnc2cc(Br)c(Cl)cc2c1=O (racemic) [Halofuginone] + C[C@]1(O)C[C@@H](c2nc(-c3ccc4ccc(-c5ccccc5)nc4c3)c3c(N)nccn32)C1 [Linsitinib] (partner 1 µM)
Method in brief: as §1

Row | Cell Line | relative viability (Cediranib + Foretinib; first compound 0.04 µM) | relative viability (Cediranib + Foretinib; first compound 0.1265 µM) | relative viability (Cediranib + Foretinib; first compound 0.4 µM) | relative viability (Cediranib + Foretinib; first compound 1.265 µM) | relative viability (Cediranib + Foretinib; first compound 4 µM) | relative viability ([1]; first compound 0.001 µM) | relative viability ([1]; first compound 0.003162 µM) | relative viability ([1]; first compound 0.01 µM) | relative viability ([1]; first compound 0.03162 µM) | relative viability ([1]; first compound 0.1 µM) | relative viability ([2]; first compound 0.001 µM) | relative viability ([2]; first compound 0.003162 µM) | relative viability ([2]; first compound 0.01 µM) | relative viability ([2]; first compound 0.03162 µM) | relative viability ([2]; first compound 0.1 µM) | relative viability ([3]; first compound 0.001 µM) | relative viability ([3]; first compound 0.003162 µM) | relative viability ([3]; first compound 0.01 µM) | relative viability ([3]; first compound 0.03162 µM) | relative viability ([3]; first compound 0.1 µM)
1 | NCI-H2085 | 0.919 | 0.942 | 0.861 | 0.759 | 0.923 | 0.541 | 0.512 | 0.525 | 0.585 | 0.349 | 0.521 | 0.461 | 0.458 | 0.461 | 0.487 | 0.863 | 1.01 | 0.864 | 0.898 | 0.627
2 | NCI-H2087 | 1.19 | 1.06 | 0.944 | 1.15 | 1.29 | 0.219 | 0.213 | 0.222 | 0.197 | 0.156 | 0.254 | 0.22 | 0.189 | 0.22 | 0.2 | 1.01 | 1.04 | 0.945 | 0.98 | 0.833
3 | NCI-H2126 | 1.26 | 1.2 | 1.04 | 1.16 | 1.05 | 0.525 | 0.544 | 0.585 | 0.546 | 0.513 | 0.362 | 0.344 | 0.347 | 0.346 | 0.354 | 0.73 | 0.671 | 0.673 | 0.71 | 0.648
4 | NCI-H2228 | 0.986 | 0.882 | 0.761 | 0.838 | 0.99 | 0.662 | 0.4 | 0.436 | 0.39 | 0.0996 | 0.957 | 0.736 | 0.971 | 0.496 | 0.111 | 0.589 | 0.926 | 0.69 | 0.394 | 0.199
5 | NCI-H2347 | 0.918 | 1.03 | 0.996 | 0.833 | 0.957 | 0.256 | 0.284 | 0.289 | 0.258 | 0.253 | 0.44 | 0.453 | 0.513 | 0.438 | 0.332 | 1.06 | 1.05 | 0.902 | 1.04 | 0.777
6 | NCI-H2405 | 1.1 | 1.13 | 1.03 | 1.1 | 1.02 | 0.696 | 0.69 | 0.678 | 0.599 | 0.502 | 0.573 | 0.565 | 0.527 | 0.498 | 0.424 | 0.991 | 1.05 | 1.01 | 0.906 | 0.69
7 | NCI-H3122 | 0.938 | 1.03 | 0.991 | 0.844 | 1.02 | 0.192 | 0.241 | 0.258 | 0.219 | 0.25 | 0.186 | 0.155 | 0.162 | 0.186 | 0.19 | 1.01 | 1.04 | 0.993 | 0.952 | 0.968
8 | PC-3 [JPC-3] | 1.1 | 1.1 | 0.98 | 1.05 | 1.08 | 0.722 | 0.741 | 0.664 | 0.648 | 0.538 | 0.595 | 0.511 | 0.529 | 0.516 | 0.493 | 0.981 | 0.987 | 0.911 | 1.01 | 0.941
9 | PC-14 | 1.04 | 1.08 | 0.861 | 0.997 | 0.928 | 0.809 | 0.618 | 0.702 | 0.154 | 0.0395 | 0.509 | 0.597 | 0.514 | 0.17 | 0.0426 | 1.09 | 0.97 | 0.884 | 0.774 | 0.332
10 | RERF-LC-KJ | 0.917 | 0.889 | 0.873 | 0.862 | 0.953 | 0.924 | 0.984 | 0.837 | 0.824 | 0.591 | 1.18 | 0.973 | 1.12 | 1.03 | 0.811 | 0.972 | 0.932 | 0.843 | 0.891 | 0.967
11 | SK-LU-1 | 0.945 | 0.825 | 0.725 | 0.876 | 0.972 | 0.572 | 0.504 | 0.559 | 0.461 | 0.321 | 0.389 | 0.439 | 0.369 | 0.368 | 0.319 | 1.18 | 0.559 | 1.14 | 0.912 | 0.58
12 | SK-MES-1 | 0.834 | 1.02 | 0.927 | 0.901 | 0.976 | 0.554 | 0.53 | 0.511 | 0.499 | 0.232 | 0.341 | 0.33 | 0.323 | 0.257 | 0.186 | 1.14 | 1.05 | 1.01 | 0.812 | 0.552
13 | SW 1573 | 0.937 | 1.01 | 0.912 | 0.996 | 1.09 | 0.563 | – | 0.596 | 0.23 | 0.0886 | 0.422 | – | 0.392 | 0.23 | 0.106 | 0.902 | 0.796 | 0.704 | 0.683 | 0.35
